{
  "source": "paper PMC12220853",
  "about": "“Natural aminosterols inhibit NMDA receptors with low nanomolar potency” (The Febs Journal, 2025)",
  "biological_target": "T1, N-methyl-D-aspartate receptor (NMDAR), native in hippocampal neurons (Rattus norvegicus, UniProt P35439+Q00959+Q00960)",
  "T1 construct": "gene Grin1; native heteromeric receptor in primary rat hippocampal neurons; with GluN2A / GluN2B (native mixture, mostly GluN1/2A/2B)",
  "T1 sequence (Q00959 23-1464, other chains not shown)": "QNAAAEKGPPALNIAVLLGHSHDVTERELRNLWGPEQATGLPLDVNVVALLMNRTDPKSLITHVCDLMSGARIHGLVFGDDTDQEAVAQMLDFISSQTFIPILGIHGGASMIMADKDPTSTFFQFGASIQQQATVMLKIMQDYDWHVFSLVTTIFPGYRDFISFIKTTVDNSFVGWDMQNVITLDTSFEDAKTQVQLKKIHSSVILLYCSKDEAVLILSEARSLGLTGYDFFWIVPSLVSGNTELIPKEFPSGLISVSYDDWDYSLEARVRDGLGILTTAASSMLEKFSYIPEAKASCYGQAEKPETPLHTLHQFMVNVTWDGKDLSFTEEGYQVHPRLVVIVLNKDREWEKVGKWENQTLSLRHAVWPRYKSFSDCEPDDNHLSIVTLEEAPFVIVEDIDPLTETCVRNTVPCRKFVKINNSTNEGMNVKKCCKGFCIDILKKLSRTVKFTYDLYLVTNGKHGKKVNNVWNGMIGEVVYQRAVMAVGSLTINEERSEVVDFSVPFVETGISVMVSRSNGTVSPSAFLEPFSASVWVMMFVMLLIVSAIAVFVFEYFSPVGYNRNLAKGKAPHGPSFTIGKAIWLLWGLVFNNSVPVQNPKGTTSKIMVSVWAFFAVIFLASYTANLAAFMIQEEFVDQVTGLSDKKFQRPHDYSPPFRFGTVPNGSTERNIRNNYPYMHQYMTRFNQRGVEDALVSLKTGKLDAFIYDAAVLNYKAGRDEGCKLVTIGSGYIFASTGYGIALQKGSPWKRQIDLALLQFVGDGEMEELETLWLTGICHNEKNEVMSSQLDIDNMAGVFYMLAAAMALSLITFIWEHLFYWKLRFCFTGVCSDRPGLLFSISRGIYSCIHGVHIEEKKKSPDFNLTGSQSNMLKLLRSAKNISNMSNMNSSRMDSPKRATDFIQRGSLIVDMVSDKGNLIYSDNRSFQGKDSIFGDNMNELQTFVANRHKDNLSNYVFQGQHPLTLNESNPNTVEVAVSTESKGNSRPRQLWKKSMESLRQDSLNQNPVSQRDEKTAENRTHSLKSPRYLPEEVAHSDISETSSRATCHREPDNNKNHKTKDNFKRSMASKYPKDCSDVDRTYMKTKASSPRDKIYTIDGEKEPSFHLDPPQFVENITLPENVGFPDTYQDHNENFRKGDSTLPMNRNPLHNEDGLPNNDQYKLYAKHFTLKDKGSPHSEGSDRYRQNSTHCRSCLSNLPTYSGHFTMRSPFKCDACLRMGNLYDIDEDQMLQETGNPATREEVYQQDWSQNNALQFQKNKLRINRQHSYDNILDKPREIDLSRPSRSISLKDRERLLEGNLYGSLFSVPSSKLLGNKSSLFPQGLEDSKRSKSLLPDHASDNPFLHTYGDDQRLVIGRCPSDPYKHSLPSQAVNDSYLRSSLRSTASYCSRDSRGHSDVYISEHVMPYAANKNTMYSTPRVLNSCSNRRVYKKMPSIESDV",
  "T1 sequence (Q00960 27-1482, other chains not shown)": "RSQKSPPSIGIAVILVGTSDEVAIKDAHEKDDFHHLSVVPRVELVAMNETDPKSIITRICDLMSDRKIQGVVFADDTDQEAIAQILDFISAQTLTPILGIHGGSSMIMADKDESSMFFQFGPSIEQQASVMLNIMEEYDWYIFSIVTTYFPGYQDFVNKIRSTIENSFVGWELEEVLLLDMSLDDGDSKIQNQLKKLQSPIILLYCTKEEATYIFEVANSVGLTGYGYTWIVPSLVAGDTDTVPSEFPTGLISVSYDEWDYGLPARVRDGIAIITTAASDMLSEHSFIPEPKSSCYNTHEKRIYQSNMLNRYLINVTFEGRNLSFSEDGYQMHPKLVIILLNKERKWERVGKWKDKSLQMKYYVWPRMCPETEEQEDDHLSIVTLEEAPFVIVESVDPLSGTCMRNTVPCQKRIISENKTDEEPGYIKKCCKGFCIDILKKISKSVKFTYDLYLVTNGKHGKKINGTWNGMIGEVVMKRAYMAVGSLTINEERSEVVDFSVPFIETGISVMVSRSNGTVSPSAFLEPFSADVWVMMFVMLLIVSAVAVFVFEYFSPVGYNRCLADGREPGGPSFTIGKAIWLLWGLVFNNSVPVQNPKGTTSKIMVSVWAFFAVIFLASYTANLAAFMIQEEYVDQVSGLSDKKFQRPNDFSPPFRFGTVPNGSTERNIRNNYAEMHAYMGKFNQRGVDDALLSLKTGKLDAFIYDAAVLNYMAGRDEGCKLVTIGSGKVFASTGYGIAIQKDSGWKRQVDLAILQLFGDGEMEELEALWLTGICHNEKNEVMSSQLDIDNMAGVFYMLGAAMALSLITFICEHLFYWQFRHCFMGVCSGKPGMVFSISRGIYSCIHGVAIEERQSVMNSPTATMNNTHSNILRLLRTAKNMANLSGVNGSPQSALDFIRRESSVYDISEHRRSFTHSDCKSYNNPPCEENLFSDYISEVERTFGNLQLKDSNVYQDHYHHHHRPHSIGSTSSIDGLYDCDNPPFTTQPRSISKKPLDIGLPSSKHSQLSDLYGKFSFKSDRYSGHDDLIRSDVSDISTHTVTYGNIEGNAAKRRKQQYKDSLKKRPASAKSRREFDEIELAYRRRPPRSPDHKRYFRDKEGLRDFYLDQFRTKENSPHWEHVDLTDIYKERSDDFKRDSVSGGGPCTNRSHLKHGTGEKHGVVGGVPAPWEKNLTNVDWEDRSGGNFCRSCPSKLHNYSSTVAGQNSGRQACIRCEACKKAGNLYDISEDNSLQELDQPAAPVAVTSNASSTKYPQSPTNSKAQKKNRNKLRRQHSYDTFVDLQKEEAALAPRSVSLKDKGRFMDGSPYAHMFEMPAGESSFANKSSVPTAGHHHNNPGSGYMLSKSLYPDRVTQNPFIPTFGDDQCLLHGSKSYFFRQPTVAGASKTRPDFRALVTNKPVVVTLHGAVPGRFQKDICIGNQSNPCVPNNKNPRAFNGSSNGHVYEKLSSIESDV",
  "assay": "whole-cell patch clamp of NMDA-activated currents in primary rat hippocampal neurons ([…] NMDA, […] glycine)",
  "format": "cell-based",
  "data": [
    {"smiles": "CC(C)[C@@H](CC[C@@H](C)[C@H]1CC[C@H]2[C@@H]3[C@H](O)C[C@H]4C[C@@H](NCCCNCCCCNCCCN)CC[C@]4(C)[C@H]3CC[C@]12C)OS(=O)(=O)O", "note": "[TRO, trodusquemine]", "values": [
      {"measurement": "IC50", "result": 5.1, "unit": "nM"}
    ]}
  ]
}
